Results on eleven compounds are retold here after US20230310418A1, “COMPOSITIONS AND METHODS FOR TREATING CANCER OR PREVENTING, INHIBITING OR REDUCING RISK OF METASTASIS OF A CANCER” (Lixte Biotechnology, Inc., priority 2022, published 2023).

“Also recorded” adds a separate entry of the source. Where two headings read alike, the source gives them in different places. Where only a bound is given, the exact number is not on record here.

For data set [1], the system named is HT-29 cells. Briefly: Stress-focused drug screen of 164 compounds with or without LB-100. The note with it: 2.5 µM LB-100 (sub-lethal); cell viability after three days (FIG. 2C). The class given is cell-based. From the text: These compounds were investigated in 15 different concentrations using a literature-based concentration range in order to obtain dose-response curves for each of these drugs.

In data set [2] the test system is RBE cholangiocarcinoma cells. Described as above. The data set is classed as cell-based. The note with it: stress-focused screen with LB-100 vs control (FIG. 5A). From the text: (§1) To identify stress-targeted drugs that can be combined with LB-100 to kill cancer cells, a library of 164 compounds was built targeting the different stress responses associated with a malignant phenotype (i.e., proteotoxic stress, oxidative stress, DNA damage stress, mitotic stress, metabolic stress, and apoptosis evasion). These compounds were investigated in 15 different concentrations using a literature-based concentration range in order to obtain dose-response curves for each of these drugs.

The test system of data set [3] is SW-480 cells. Described as above. The data set is classed as cell-based. The note with it: 2.5 µM LB-100 (sub-lethal); cell viability after three days; 15 concentrations (FIG. 2B).
Source text: as §1

The test system of data set [4] is colorectal cancer cell lines. The class given is cell-based. The note with it: for toxicity when combined with LB-100, long-term cell proliferation: SW-480 cells, multiple concentrations, 10-14 days (FIG. 2F). The protocol:
Finally, plates were scanned and stored.
(§2) Then the cell viability was measured using resazurin.

Data set [5] deals with colorectal cancer cell lines. The data set can be described thus: cells. How it is done:
Drug-response assays were performed in triplicate, using black-walled 384-well plates. Cells were plated with a 20% density (approximately) and incubated for approximately 24 hours to allow attachment to the plate. […] 10 µM phenylarsine oxide was used as positive control (0% cell viability) and DMSO was used as negative control (100% cell viability). 3-5 days later, culture medium was removed and resazurin was added to the plates. After 1-4 hours incubation (depending on the cell line), fluorescence (560Ex/590Em) was recorded using the EnVision (Perkin Elmer).
The effect of increasing doses of LB-100 to the Table 1 cell lines, both in short-term cell viability assays (FIG. 1A) and long-term cell proliferation assays (FIG. 1B), was analyzed. For the short-term study, cells were cultured with increasing concentrations of LB-100 for 5 days. Then the cell viability was measured using resazurin.
Adavosertib was used as the WEE1 kinase inhibitor to investigate the effect of the combination with LB-100 in the panel of CRC cells. […] Toxicity of the combination in long-term viability assays was assessed. The cells were cultured for at least ten days and the drugs were refreshed every other day. The toxicity of the single drugs in this experimental setup was assessed. […] Cells were then treated at the indicated conditions and confluence over time was measured by IncuCyte®, FIG. 3D).

Data set [6] concerns cholangiocarcinoma (CCA) cell lines. The data set can be described thus: Short-term cell viability dose-response assay (resazurin). The class given is cell-based. The note with it: 120 h, read-out: IC50s from dose-response curves. From the text: (§3) The efficacy of the LB-100/adavosertib combination in the CRC cell lines encouraged further evaluation in other tumor types lacking effective treatment options. Pancreatic ductal adenocarcinomas (PDACs) are refractory to conventional therapies and the 5-year survival rates remain one of the lowest among all cancers. Similarly, despite a much lower overall incidence, cholangiocarcinomas (CCAs) share with PDACs the frequent lack of response to conventional therapies and the dismal prognosis. A panel of four PDAC cell lines and a similar one with CCA cells were assembled to assess the efficacy of LB-100 and adavosertib in these cancer types. […] To investigate the effects of the combination in the PDAC and CCA cancer cell lines systematically, the same experimental workflow used for the CRC panel was employed. First, the long-term toxicity of LB-100 and adavosertib was addressed in the PDAC and CAA cell lines (FIG. 5D and FIG. 8C). […] As observed for DiFi and RKO, the doses of adavosertib used in the synergy assays are already toxic to AspC-1, EGI, and HuCC-T1 cells (FIG. 5C, FIG. 8A, and FIG. 8B).
In general terms: The colour change of resazurin is a common sign of viable cells or microbes.

The test system of data set [7] is pancreatic ductal adenocarcinoma (PDAC) cell lines. The data set is described as above. The class given is cell-based. The note with it: 120 h, read-out: IC50s from dose-response curves.
Source text: as §3

The subject of data set [8] is mitogenic signaling pathways and stress response pathways. Briefly: Time-course Western blots. The data set is classed as cell-based. The note with it: DiFi, HT-29 and SW-480 cells; vinculin control (FIG. 1C-1E). The protocol:
After the indicated culture period and drug treatment, cells were washed with cold PBS, then lysed with RIPA buffer (25 mM Tris-HCl, pH 7.6, 150 mM NaCl, 1% NP-40, 1% sodium deoxycholate, 0.1% SDS) containing Complete Protease Inhibitor cocktail and phosphatase inhibitor cocktails II and III. Samples were then centrifuged for 10 min at 15,000 x g at 4° C. and supernatant was collected. Protein concentration of the samples was normalized after performing a Bicinchoninic Acid (BCA) assay. Protein samples (denatured with DTT followed by 5 min heating at 95° C.) were then loaded in a 4-12% polyacrylamide gel. Gels were run (SDS-PAGE) for approximately 45 min at 175 volts. Proteins were transferred from the gel to a polyvinylidene fluoride (PVDF) membrane at 330 mA for 90 min. After the transfer, membranes were incubated in blocking solution (5% bovine serum albumin (BSA) in PBS with 0.1% Tween-20 (PBS-T)). Subsequently, membranes were probed with primary antibody in blocking solution (1:1000) overnight at 4° C. Membranes were then washed 3 times for 10 min with PBS-T, followed by 1 h incubation at room temperature with the secondary antibody (HRP conjugated, 1:10,000) in blocking solution. […]
as §2
(In general: A western blot detects proteins with antibodies after separation by electrophoresis.)

As to `N#Cc1cnc(Nc2cc(NC[C@H]3CNCCO3)c(C(F)(F)F)cn2)cn1` [CCT-245737], the “toxicity in the presence of LB-100 vs control (normalized AUC)” value (shortened to “toxicity … vs control (normalized AUC)”) in data set [1] is listed as “increased toxicity”.
For the compound `Cn1cc(-c2cnn3c(N)c(Br)c([C@@H]4CCCNC4)nc23)cn1` [SCH-900776], in data set [2], the “increased drug efficacy in the presence of LB-100 (normalized AUC)” value (from here on “increased drug efficacy … (normalized AUC)”) is on record as “among the top 5% in increased drug efficacy”. Moreover, in data set [1], the “toxicity … vs control (normalized AUC)” value is “increased toxicity”.
Regarding `CCN(CC)CCOc1ccc(Nc2ncc3cc(-c4c(Cl)cccc4Cl)c(=O)n(C)c3n2)cc1` [PD0166285], the “toxicity … vs control (normalized AUC)” value in data set [3] is “among the bottom 5% normalized AUCs”.
For the compound `COc1cccc(OCCCN)c1-c1cc(Nc2cnc(C#N)cn2)n[nH]1` [prexasertib], the “toxicity when combined with LB-100, long-term cell proliferation” value (“toxicity when combined” below) in data set [4] is “increased toxicity”. Moreover, in data set [2], the “increased drug efficacy … (normalized AUC)” value was “among the top 5% in increased drug efficacy”. The “toxicity … vs control (normalized AUC)” value in data set [3] is on record as “among the bottom 5% normalized AUCs; also recorded: increased toxicity”.
As to `Cc1cnc(NC(=O)Nc2cc(Br)c(C)cc2OC[C@@H]2CNCCO2)cn1` [rabusertib], the “increased drug efficacy … (normalized AUC)” value in data set [2] is “among the top 5% in increased drug efficacy”. Moreover, the “toxicity … vs control (normalized AUC)” value in data set [3] is “among the bottom 5% normalized AUCs; also recorded: increased toxicity”.
Take `CNCc1ccc(-c2cc(-c3nc(-c4ccc(S(=O)(=O)C(C)C)cc4)cnc3N)on2)cc1` [berzosertib]: in data set [2], the “increased drug efficacy … (normalized AUC)” value is “among the top 5% in increased drug efficacy”.
Consider `CC1(C)CCC(c2ccc(Cl)cc2)=C(CN2CCN(c3ccc(C(=O)NS(=O)(=O)c4ccc(N[C@H](CCN5CCOCC5)CSc5ccccc5)c(S(=O)(=O)C(F)(F)F)c4)cc3)CC2)C1` [navitoclax], for which the “toxicity … vs control (normalized AUC)” value in data set [3] is recorded as “increased in the presence of LB-100”.
On to `C=CCn1c(=O)c2cnc(Nc3ccc(N4CCN(C)CC4)cc3)nc2n1-c1cccc(C(C)(C)O)n1` [adavosertib], for which the IC50 in data set [5] (120 h, read-out: IC50s from dose-response curves) was 180 to 1000 nM; in data set [6] (range across CCA cell lines, 5 days, resazurin (FIG. 5C)) it was 100 to 370 nM; in data set [7] (range across four PDAC cell lines, 5 days, resazurin (FIG. 8A, 8B)), 300 to 1700 nM. Besides, the “tolerance to single drug, long-term viability” value in data set [4] (DLD1, HCT-116 and SW-480 cells (FIG. 3C)) is “largely tolerant to up to 500 nM”. Moreover, the “toxicity when combined” value in data set [4] is on record as “increased toxicity”. Moreover, the “increased drug efficacy … (normalized AUC)” value in data set [2] was “among the top 5% in increased drug efficacy”. For the same compound, the “toxicity … vs control (normalized AUC)” value in data set [3] is “among the bottom 5% normalized AUCs”; in data set [1] it was “LB-100 increased the toxicity”.
For the compound `N[C@@H]1CCCN(c2c(Br)cnc3[nH]cc(NC(=O)C4CC4)c23)C1` [GDC-0575], in data set [2], the “increased drug efficacy … (normalized AUC)” value is “among the top 5% in increased drug efficacy”. Moreover, the “toxicity … vs control (normalized AUC)” value in data set [3] is “among the bottom 5% normalized AUCs”; in data set [1] it was “LB-100 increased the toxicity”.
For the compound `CN1CCN(C(=O)[C@@H]2[C@H](C(=O)O)[C@H]3CC[C@@H]2O3)CC1` (racemic) [LB-100], the “cytotoxicity, short-term cell viability” value in data set [5] is given as “moderate toxicity in the lower micro molar range”. The results for the IC50 in data set [6] and in data set [7] were not below 4700 nM and not below 3200 nM, respectively. Further, in data set [4], the “cytotoxicity, long-term cell proliferation” value is reported as “moderate toxicity in the lower micro molar range”. The “activation of mitogenic signaling and stress response pathways” value in data set [8] was “activates mitogenic signaling pathways and engages stress response pathways”.
As for `CN(C)CC#Cc1ccc(OCCCc2sc(N3CCc4cccc(C(=O)Nc5nc6ccccc6s5)c4C3)nc2C(=O)O)c(F)c1` [Compound A-1155463], in data set [4], the “toxicity when combined” value was “increased toxicity”. In addition, the “toxicity … vs control (normalized AUC)” value in data set [3] is listed as “increased in the presence of LB-100”.
